Test results published in ChEMBL document CHEMBL1201862, “PubChem BioAssay data set” (2004).
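Five concentrations, 48 hours, 96-well plates. GI50 is the concentration that inhibits growth by half.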 Active and inactive are the calls of the source. Cut-off read from the data, not from the text of the source: active = GI50 up to about 1.1 µM and inactive = higher.

Columns and labels:
Assay in all cases: NCI-60 cell line screen, 48 h
[1] = tested on: ACHN
[2] = tested on: SK-OV-3
[3] = tested on: A549
[4] = tested on: HOP-92
[5] = tested on: SK-MEL-2
[6] = tested on: T47D
[7] = tested on: MDA-MB-231
[8] = tested on: U-251
[9] = tested on: UACC-257
[10] = tested on: KM12
[11] = tested on: HCT-15
[12] = tested on: HCT-116
[13] = tested on: HOP-62
[14] = tested on: NCI-H522
[15] = tested on: SF-539
[16] = tested on: DU-145
[17] = tested on: SN12C
[18] = tested on: 786-0
[19] = tested on: Hs-578T
[20] = tested on: Malme-3M
[21] = tested on: MDA-MB-435
[22] = tested on: BT-549
[23] = tested on: SK-MEL-5
[24] = tested on: CCRF-CEM
[25] = tested on: UACC-62
[26] = tested on: OVCAR-4
[27] = tested on: M14
[28] = tested on: MOLT-4
[29] = tested on: K562
[30] = tested on: IGROV-1
[31] = tested on: NCI/ADR-RES
[32] = tested on: HL-60
[33] = tested on: NCI-H226
[34] = tested on: SW-620
[35] = tested on: SK-MEL-28
[36] = tested on: SNB-19
[37] = tested on: NCI-H460
[38] = tested on: RPMI-8226
[39] = tested on: OVCAR-5
[40] = tested on: EKVX
[41] = tested on: OVCAR-3
[42] = tested on: TK-10
[43] = tested on: A498
[44] = tested on: MDA-N
[45] = tested on: HT-29
[46] = tested on: UO-31
[47] = tested on: SNB-75
[48] = tested on: CAKI-1
[49] = tested on: LOX IMVI
[50] = tested on: SF-295
[51] = tested on: COLO 205
[52] = tested on: PC-3
[53] = tested on: MCF7
[54] = tested on: OVCAR-8
[55] = tested on: RXF 393
[56] = tested on: NCI-H23
[57] = tested on: HCC 2998
[58] = tested on: SR
[59] = tested on: SF-268

Measured: GI50

O=C(O)CN1CCN2CCCCCCCCN(CC1)CCN(CC(=O)O)CC2
> 100 µM: [11]
inactive: [1] > 100 µM | [2] > 100 µM | [3] > 100 µM | [4] > 100 µM | [5] > 100 µM | [6] > 100 µM | [7] > 100 µM | [8] > 100 µM | [9] > 100 µM | [10] 75.2 µM | [12] > 100 µM | [13] > 100 µM | [14] 64.6 µM | [15] > 100 µM | [16] > 100 µM | [17] > 100 µM | [18] > 100 µM | [19] > 100 µM | [20] > 100 µM | [21] > 100 µM | [22] > 100 µM | [23] > 100 µM | [24] > 100 µM | [25] > 100 µM | [26] > 100 µM | [27] > 100 µM | [28] > 100 µM | [29] > 100 µM | [30] > 100 µM | [31] > 100 µM | [32] 5.08 µM | [33] > 100 µM | [34] > 100 µM | [35] > 100 µM | [36] > 100 µM | [37] > 100 µM | [38] > 100 µM | [39] > 100 µM | [40] > 100 µM | [41] > 100 µM | [42] > 100 µM | [43] > 100 µM | [44] > 100 µM | [45] 43.5 µM | [46] > 100 µM | [47] 21.9 µM | [48] > 100 µM | [49] > 100 µM | [50] > 100 µM | [51] > 100 µM | [52] > 100 µM | [53] > 100 µM | [54] > 100 µM

CC1(C)CC2(C)CC1CC2NC(=O)CCN1CCOCC1 (stereo unspecified)
inactive: [1] > 100 µM | [2] > 100 µM | [3] > 100 µM | [55] > 100 µM | [4] > 100 µM | [6] > 100 µM | [7] > 100 µM | [8] > 100 µM | [9] > 100 µM | [10] > 100 µM | [12] > 100 µM | [13] > 100 µM | [14] > 100 µM | [15] > 100 µM | [16] > 100 µM | [17] > 100 µM | [18] > 100 µM | [19] > 100 µM | [20] > 100 µM | [21] > 100 µM | [22] > 100 µM | [23] > 100 µM | [56] > 100 µM | [24] > 100 µM | [25] > 100 µM | [26] > 100 µM | [27] > 100 µM | [28] > 100 µM | [29] > 100 µM | [30] > 100 µM | [32] > 100 µM | [33] > 100 µM | [34] > 100 µM | [35] > 100 µM | [36] > 100 µM | [37] > 100 µM | [39] > 100 µM | [57] > 100 µM | [40] > 100 µM | [41] > 100 µM | [42] > 100 µM | [43] > 100 µM | [44] > 100 µM | [45] > 100 µM | [46] > 100 µM | [47] > 100 µM | [48] > 100 µM | [58] > 100 µM | [50] > 100 µM | [51] > 100 µM | [52] > 100 µM | [53] > 100 µM | [59] > 100 µM | [54] > 100 µM

Cc1ccc(-[n+]2cc([O-])on2)cc1
> 100 µM: [11]
inactive: [1] > 100 µM | [3] > 100 µM | [55] > 100 µM | [4] 64 µM | [5] > 100 µM | [6] > 100 µM | [7] > 100 µM | [8] > 100 µM | [9] > 100 µM | [10] > 100 µM | [12] > 100 µM | [13] > 100 µM | [14] > 100 µM | [16] > 100 µM | [17] > 100 µM | [18] > 100 µM | [19] > 100 µM | [20] > 100 µM | [21] > 100 µM | [22] > 100 µM | [23] > 100 µM | [56] > 100 µM | [24] > 100 µM | [25] > 100 µM | [26] > 100 µM | [27] > 100 µM | [28] > 100 µM | [29] > 100 µM | [30] > 100 µM | [31] > 100 µM | [32] > 100 µM | [33] 10.1 µM | [34] > 100 µM | [35] > 100 µM | [36] > 100 µM | [37] > 100 µM | [38] > 100 µM | [39] > 100 µM | [40] > 100 µM | [41] > 100 µM | [42] > 100 µM | [43] 65.8 µM | [44] > 100 µM | [45] > 100 µM | [46] > 100 µM | [48] > 100 µM | [58] > 100 µM | [49] > 100 µM | [50] > 100 µM | [52] > 100 µM | [59] > 100 µM | [54] > 100 µM
